Experimental data: US20230119002A1, “COMPOSITIONS AND METHODS CONTAINING REDUCED NICOTINAMIDE RIBOSIDE FOR PREVENTION AND TREATMENT OF CARDIOVASCULAR DISEASES AND CONDITIONS” (SOCIETE DES PRODUITS NESTLE S.A., priority 2020, published 2023)
Structures can show the parent of a compound that is named as a salt. Values belong to the compound of their own block, whether it stands above or below them.

Experiments:
[1] = Tissue NAD+ and circulating metabolites after IP injection in mice; type: in vivo; conditions: for NAD+ levels in liver, muscle and kidney: after 1 h
Description: (§1) Levels of NRH and other NAD-related metabolites in biological samples were obtained by using a cold liquid-liquid extraction using a mixture of methanol:water:chloroform in 5:3:5 (v/v), from which the polar phase was recovered for hydrophilic interaction ultra-high performance liquid chromatography mass spectrometry (UHPLC-MS) analysis. The UHPLC consisted of a binary pump, a cooled autosampler, and a column oven (DIONEX Ultimate 3000 UHPLC+ Focused, Thermo Scientific), connected to a triple quadrupole spectrometer (TSQ Vantage, Thermo Scientific) equipped with a heated electrospray ionisation (H-ESI) source. Of each sample, 2 μL were injected into the analytical column (2.1 mm×150 mm, 5 μm pore size, 200 Å HILICON iHILIC®-Fusion(P)), guarded by a pre-column (2.1 mm×20 mm, 200 Å HILICON iHILIC®-Fusion(P) Guard Kit) operating at 35° C. The mobile phase (10 mM ammonium acetate at pH 9, A, and acetonitrile, B) was pumped at 0.25 mL/min flow rate over a linear gradient of decreasing organic solvent (0.5-16 min, 90-25% B), followed by re-equilibration for a total run time of 30 min. The MS operated in positive mode at 3500 V with multiple reaction monitoring (MRM). The software Xcalibur v4.1.31.9 (Thermo Scientific) was used for instrument control, data acquisition and processing. Retention time and mass detection was confirmed by authentic standards.
The above results prompted us to test whether NRH could act as an effective NAD+ precursor in vivo. For this, we first intraperitoneally (IP) injected mice with either NR or NRH (500 mg/kg). […] Importantly, NRH was detectable in circulation after IP injection.

[2] = Stability in FBS supplemented media; type: in vitro ADME
Method: (§2) NR degradation to NAM has been proposed as a limitation for its pharmacological efficacy. To evaluate whether NRH was also susceptible to degradation to NAM, we spiked NRH or NR in isolated mouse plasma. […] We also tested the stability of NRH in other matrixes. […] Finally, we also certified NRH stability in water (pH=7, at room temperature) for 48 h.

[3] = test system: NRK1; test: NAD+ levels in primary hepatocytes from control or NRK1 knockout mice; conditions: 1 hour of treatment, NRK1 knockout mouse hepatocytes
[4] = type: in vivo, mice
Method: 8 week-old C57BI/6NTac mice were orally gavaged with either saline (as vehicle), NR (500 mg/kg) or NRH (500 mg/kg). After 1 hour, liver, skeletal muscle and kidney NAD^+ levels were evaluated. All results are expressed as mean+/−SEM of n=5 mice per group. * indicates statistical difference at p<0.05 vs. vs. saline-treated mice. # indicates statistical difference at p<0.05 vs. NR treated mice.
as §1
Oral administration of NRH led to very similar results to those observed after IP administration. […] NRH was detectable in plasma 1 h after oral administration. In contrast, NR levels were undetectable at 1 h after NR administration.

[5] = Stability in isolated mouse plasma; type: in vitro ADME
Description: as §1, §2

[6] = test system: zebrafish embryos; test: Doxorubicin-induced toxicity in zebrafish larvae; type: in vivo; conditions: Doxorubicin 25 uM with NRH 500 uM, up to 60 h
Method: 1 day post fertilization zebrafish embryos were placed in 24 well plates and treated with Doxorubicin (25 uM), either alone or in combination with NRH (500 uM). Untreated group was exposed to DMSO (0.05%). Health of the larvae was monitored frequently, and dead larvae were scored overtime, up to 60 h treatment. Results are expressed as percent of survival of n=60 embryos per group. Statistics represented were calculated by pairwise comparison using log-rank test and p-value adjustment was performed by Bonferroni correction. p-Value for median survival of untreated vs Doxorubicin <0.0001, p-value Doxorubicin vs Doxorubicin+NRH <0.0001.
Doxorubicin is a chemotherapeutic agent that is well established to be cardiotoxic. This drug has also been described to induce cardiomyopathy in zebrafish larvae. 1 day post fertilization zebrafish embryos were placed in 24 well plates and treated with Doxorubicin (25 uM), either alone or in combination with NRH (500 uM). Untreated group was exposed to DMSO (0.05%). Health of the larvae was monitored frequently, and dead larvae were scored overtime, up to 60 h treatment. Results are expressed as percent of survival of n=60 embryos per group.

[7] = test system: 3T3 fibroblasts; test: NAD+ levels in 3T3 fibroblasts after NRH treatment; type: cell-based
Method: (§3) The ability of NRH to potently increase NAD+ was tested as well in other cell type models.

[8] = biological target: T1, adenosine kinase (AK) (Mus musculus, UniProt P55264); test: NRH-induced NAD+ synthesis with adenosine kinase inhibitors; type: cell-based
T1 construct: endogenous in cells; host or cells: AML12 cells
Method: AML12 cells were treated with an adenosine kinase inhibitor (5-IT; […]) for 1 hour prior to NRH treatment at the doses indicated. Then, 1 hour later, acidic extracts were obtained to measure NAD^+ levels. All values in the figure are expressed as mean+/−SEM of 3 independent experiments. * indicates statistical difference at p<0.05 vs. the respective vehicle treated group.
Considering the molecular structure of NRH, we reasoned that an alternative nucleoside kinase could be responsible for the phosphorylation of NRH. Confirming this expectation, the adenosine kinase (AK) inhibitor 5-iodotubercidin (5-IT) fully ablated the action of NRH. The role of AK in NRH-mediated NAD+ synthesis was confirmed using a second, structurally different, AK inhibitor, ABT-702. Metabolomic analyses further confirmed that upon inhibition of AK, the generation of NMNH, NADH and NAD+ was fully blunted, even if NRH was effectively entering the cell.

[9] = test system: C2C12 myotubes; test: NAD+ levels in C2C12 myotubes after NRH treatment; type: cell-based
Method: as §3

[10] = test system: zebrafish larvae; test: Ethanol-induced cardiac edema in zebrafish larvae; type: in vivo; conditions: 2% Ethanol during 20 h, NRH 500 uM co-treatment, 3 days post fertilization
Method: Phenotypic scoring of cardiac edema severity in zebrafish larvae at 3 days post fertilization exposed to 2% Ethanol during 20 h with or without NRH (500 uM) co-treatment (untreated, n=60; Ethanol, n=73; Ethanol +NRH, n=72). Statistics represented were calculated by non-parametric Chi-square test without p-value adjustment. **** p-Value<0.0001, * p-Value=0.0275.
Phenotypic scoring of cardiac edema severity in zebrafish larvae at 3 days post fertilization exposed to 2% Ethanol during 20 h with or without NRH (500 uM) co-treatment (untreated, n=60; Ethanol, n=73; Ethanol+NRH, n=72). This indicates NRH protects against ethanol-induced cardiac edema in Zebrafish.

[11] = test system: AML12 hepatocytes; test: Intracellular NAD+ levels in AML12 hepatocytes after NRH or NR treatment; type: cell-based
Description: as §1
Even at such relatively low dose, NRH achieved similar increases in intracellular NAD+ levels to those reached with NR at 50-fold higher concentrations.
NRH actions were also extremely fast (FIG. 3), as significant increases in NAD+ levels were observed within 5 minutes after NRH treatment.

[12] = test system: NMNAT; test: NRH-induced NAD+ synthesis with NMNAT inhibitor gallotannin; type: cell-based
Description: As a follow-up step, NMNAT enzymes could catalyze the transition from NMNH to NADH. […] Yet, part of the NRH action remained after gallotannin treatment when NRH was used at maximal doses.

[13] = biological target: T2, NAMPT (Mus musculus, UniProt Q99KQ4); test: NRH-induced NAD+ synthesis with NAMPT inhibitor FK866; type: cell-based
T2 construct: endogenous in cells; AML12 inferred

[14] = test system: INS1-cells; test: NAD+ levels in INS1-cells after NRH treatment; type: cell-based
Method: as §3

[15] = test system: equilibrative nucleoside transporters (ENTs); test: NRH-induced NAD+ synthesis with ENT-mediated transport blocked by NBTI; type: cell-based; conditions: in the presence of NBTI (ENT blocker)
Description: In order to understand the exact path by which NRH synthesizes NAD+, we initially evaluated whether NRH, could be transported into the cell by equilibrative nucleoside transporters (ENTs).

[16] = test system: H9C2 cardiomyocytes; test: Oxidative stress-induced cardiomyocyte cell death; type: cell-based; conditions: H2O2 0.25 mM or 0.5 mM for 24 hours, NRH 0.1 mM
Method: H9C2 cardiomyocytes were differentiated for 6 days and then were treated with hydrogen peroxide (H2O2; at either 0.25 mM or 0.5 mM) for 24 hrs in the presence or absence of NRH (0.1 mM). PBS was used as vehicle for NRH. After 24 hrs, cell viability was evaluated by lumiscence using a commercial kit (Cell Title-Glow; Promega). All results are expressed as meand+/−SEM of n=6 experiments. * indicates P<0.05 vs. the respective vehicle treated group.
H9C2 cardiomyocytes were differentiated for 6 days and then were treated with hydrogen peroxide (H2O2; at either 0.25 mM or 0.5 mM) for 24 hours in the presence or absence of NRH (0.1 mM). PBS was used as vehicle for NRH. After 24 hours, cell viability was evaluated by lumiscence using a commercial kit (Cell Title-Glow; Promega).

T1 sequence (P55264 whole entry): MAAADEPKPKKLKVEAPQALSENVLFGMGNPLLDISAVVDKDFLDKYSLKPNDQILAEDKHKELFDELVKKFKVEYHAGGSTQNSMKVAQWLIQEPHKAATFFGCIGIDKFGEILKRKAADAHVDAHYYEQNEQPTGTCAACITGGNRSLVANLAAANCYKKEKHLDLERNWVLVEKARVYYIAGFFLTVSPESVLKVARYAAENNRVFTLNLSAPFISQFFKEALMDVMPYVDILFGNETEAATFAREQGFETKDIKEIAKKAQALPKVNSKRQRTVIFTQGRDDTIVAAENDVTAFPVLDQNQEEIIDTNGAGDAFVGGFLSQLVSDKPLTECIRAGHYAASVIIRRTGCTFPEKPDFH
T2 sequence (Q99KQ4 whole entry): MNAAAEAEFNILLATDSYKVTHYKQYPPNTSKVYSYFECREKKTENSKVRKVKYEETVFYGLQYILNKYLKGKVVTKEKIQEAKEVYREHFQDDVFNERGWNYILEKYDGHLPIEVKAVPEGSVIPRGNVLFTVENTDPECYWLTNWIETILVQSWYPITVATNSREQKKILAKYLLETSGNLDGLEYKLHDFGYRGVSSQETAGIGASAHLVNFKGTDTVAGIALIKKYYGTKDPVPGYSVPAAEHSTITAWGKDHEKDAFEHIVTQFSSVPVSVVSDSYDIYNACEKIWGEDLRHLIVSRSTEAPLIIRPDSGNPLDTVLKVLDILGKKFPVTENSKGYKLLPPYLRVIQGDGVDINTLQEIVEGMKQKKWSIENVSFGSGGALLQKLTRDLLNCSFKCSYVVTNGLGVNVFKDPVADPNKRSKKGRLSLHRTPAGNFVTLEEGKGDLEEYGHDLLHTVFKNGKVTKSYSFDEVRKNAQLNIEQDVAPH

NAM levels in circulation ([1]; mice, IP 500 mg/kg): highly increased
degradation to NAM in FBS supplemented media [2]: occurs
NAD+ levels in NRK1KO derived primary hepatocytes [3]: failed to increase NAD+ levels
circulating NAM after NR relative to after NRH treatment ([4]; C57BI/6NTac, mouse, in vivo, po, 1 h): ~4 fold
administered compound in plasma ([4]; mouse, in vivo, po): undetectable
circulating NAM ([4]; mouse, in vivo, po): large increases
compound levels in isolated mouse plasma ([5]; spiked, 2 h of incubation): decayed
generation of NAM in isolated mouse plasma ([5]; spiked, 2 h of incubation): increase in NAM
Structure (SMILES): NC(=O)c1ccc[n+]([C@@H]2O[C@H](CO)[C@@H](O)[C@H]2O)c1 [NR, 1-b-D-ribofuranosyl-3-pyridinecarboxamide salt, reference compound]
NAD+ levels in liver, muscle and kidney ([1]; mice, IP 500 mg/kg): increased

Structure (SMILES): NC(=O)C1=CN([C@@H]2O[C@H](CO)[C@@H](O)[C@H]2O)C=CC1 [NRH]
NAD+ levels in liver, muscle and kidney ([1]; mice, IP 500 mg/kg): increased
NAM levels in circulation ([1]; mouse, in vivo, ip, 500 mg/kg): only a very mild increase
NR in circulation after NRH treatment versus after NR injection ([1]; mouse, in vivo, ip, 500 mg/kg): much higher levels
NRH in circulation ([1]; mouse, in vivo, ip, 500 mg/kg): detectable
survival under doxorubicin induced toxicity [6]: rescues
NAD+ levels [7]: highly elevated
degradation to NAM in FBS supplemented media [2]: did not degrade to NAM
formation of NR and NMN after NRH treatment with 5-IT ([8]; 5-IT treatment): prevented the formation of NR and NMN
action of NRH on NAD+ with 5-iodotubercidin (5-IT) ([8]; AML12 cells, 5-IT 10 mM for 1 hour prior to NRH, NAD+ 1 hour later): fully ablated
generation of NMNH, NADH and NAD+ upon inhibition of AK ([8]; metabolomic analyses): fully blunted
role of AK in NRH-mediated NAD+ synthesis with ABT-702 ([8]; second, structurally different AK inhibitor): confirmed
NAD+ levels [9]: highly elevated
cardiac edema severity (phenotypic scoring) [10]: protects
effect on hepatic NAD+ levels ([4]; mice, oral administration, compared with NR): more potent effect
NRH concentration in plasma ([4]; mouse, in vivo, po): 11.16 ± 1.74 µM
administered compound in plasma ([4]; mouse, in vivo, po): detectable
intracellular NRH and NMNH ([11]; 5 minutes after treatment): could be detected
concentration of maximal effects on NAD+ synthesis ([11]; AML12 hepatocytes): around the millimolar range
time to significant increase in NAD+ levels after treatment ([11]; AML12 hepatocytes (FIG. 3)): ≤ 5 min
NR concentration needed for similar increase in intracellular NAD+, relative to NRH ([11]; AML12 hepatocytes, NRH at 10 μM): 50 fold
increase of intracellular NAD+ levels at maximal effect ([11]; AML12 hepatocytes, around the millimolar range): more than 10 fold
ability to increase intracellular NAD+ ([11]; AML12 hepatocytes, compared with NR): superior to that of NR
concentration at which NAD+ levels were significantly increased ([11]; AML12 hepatocytes, dose-response (FIG. 2)): 10 µM
increase in intracellular NR and NMN ([11]; after NRH treatment, compared with NR treatment): greater than that triggered by NR itself
NAD+ synthesis after NRH treatment with gallotannin ([12]; NMNAT inhibitor gallotannin, part of action remained at maximal doses (0.5 mM)): largely compromised
NRH action with gallotannin at submaximal doses ([12]; submaximal NRH doses): totally blocked
dependence of action on NAMPT [13]: NAMPT-independent
NAD+ levels [14]: highly elevated
capacity as extracellular NAD+ precursor [15]: largely lost its capacity
cell viability under oxidative stress [16]: protects
NR production on incubation in isolated plasma [5]: did not lead to NR production
